This passage reports IC50 results from US10689377B2 (Mirati Therapeutics, Inc., priority 2017, dated 2020).

Where a name gives a salt, the structure may show the parent alone.

The experiment deals with KRas G12C (Homo sapiens, UniProt P01116, G12C). Description: Cellular inhibition of KRas G12C measured by Phospho-ERK in NCI-H358 cells. The note with it: pERK(Thr202/Tyr204) normalized with GAPDH, NCI-H358 cells, 3 hours; read-out: IC50. The format is cell-based. Here is the method: Cells were plated in poly-D-Lysine coated 96-well plates at a concentration of 50,000 cells/well and allowed to attach for 8-12 hours. Diluted compounds were then added at a final concentration of 0.5% DMSO. After 3 hours, the medium was removed, 150 μL of 4% formaldehyde was added and the plates were incubated for 20 minutes. The plates were washed with PBS, and permeabilized using 150 μL of ice cold 100% methanol for 10 minutes. Non-specific antibody binding to the plates was blocked using 100 μL Licor Blocking Buffer (Li-Cor Biotechnology, Lincoln Nebr.) for 1 hour at room temperature. Positive control samples and samples lacking cells were parallel processed with test samples as standards.
Sequence of KRas G12C (P01116 1-188 isoform P01116-2 G12C): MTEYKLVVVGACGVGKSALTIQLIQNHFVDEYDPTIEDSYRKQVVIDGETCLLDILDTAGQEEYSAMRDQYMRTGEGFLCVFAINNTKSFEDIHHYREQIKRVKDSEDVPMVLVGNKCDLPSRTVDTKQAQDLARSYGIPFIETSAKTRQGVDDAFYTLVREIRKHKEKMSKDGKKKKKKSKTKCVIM
The amount Phospho-ERK was determined using an antibody specific for the phosphorylated form of ERK and compared to the amount of GAPDH. […] The plates were incubated for 2 hours at room temperature. The plates were washed with PBS+0.05% Tween 20.
Secondary antibodies used to visualize primary antibodies were added as follows: Anti-rabbit-680 diluted 1:1000 and Anti-mouse-800 diluted 1:1000 in Licor Block+0.05% Tween 20 and incubated for 1 hour at room temperature. The plates were washed with PBS+0.05% Tween 20. A 100 μL aliquot of PBS was added to each well and the plates were read on a LICOR AERIUS plate reader.
The pERK(Thr202/Tyr204) signal was normalized with the GAPDH signal and percent of DMSO control values were calculated. IC50 values were generated using a 4 parameter fit of the dose response curve. Key: “A”≥0.0001-≤1 μM; “B”>1 μM and ND=not determined.
Turning to `Cc1cccc(N2CCc3c(nc(OC[C@@H]4CCCN4C)nc3N3CCN(C(=O)/C=C/C(F)(F)F)[C@@H](CC#N)C3)C2)c1C` [Example 486, 2-((S)-4-(7-(2,3-dimethylphenyl)-2-(((S)-1-methylpyrrolidin-2-yl)methoxy)-5,6,7,8-tetrahydropyrido[3,4-d]pyrimidin-4-yl)-1-((E)-4,4,4-trifluorobut-2-enoyl)piperazin-2-yl)acetonitrile], the IC50 was 0.0001 to 1 µM.

Take `C=CC(=O)N1CCN(c2nc(OC[C@@H]3CCCN3C)nc3c2CCN(c2cccc(Cl)c2Cl)C3)C[C@@H]1CC#N` [Example 421, 2-((S)-1-acryloyl-4-(7-(2,3-dichlorophenyl)-2-(((S)-1-methylpyrrolidin-2-yl)methoxy)-5,6,7,8-tetrahydropyrido[3,4-d]pyrimidin-4-yl)piperazin-2-yl)acetonitrile]: the IC50 was in the range of 0.0001 to 1 µM.

For `C=CC(=O)N1CCN(c2nc(O[C@H](C)CN3CCOCC3)nc3c2CCN(c2cc(O)cc4ccccc24)C3)CC1` [Example 56, (R)-1-(4-(7-(3-hydroxynaphthalen-1-yl)-2-((1-morpholinopropan-2-yl)oxy)-5,6,7,8-tetrahydropyrido[3,4-d]pyrimidin-4-yl)piperazin-1-yl)prop-2-en-1-one], the IC50 is 0.0001 to 1 µM.

With `C=CC(=O)N1CCN(c2nc(OC[C@H]3CN(C)CCN3)nc3c2CCN(c2cccc4ccccc24)C3)CC1CC#N` (stereo partly drawn) [Example 224, 2-(1-acryloyl-4-(2-(((R)-4-methylpiperazin-2-yl)methoxy)-7-(naphthalen-1-yl)-5,6,7,8-tetrahydropyrido[3,4-d]pyrimidin-4-yl)piperazin-2-yl)acetonitrile], the IC50 fell in the range of 0.0001 to 1 µM.

Consider `C=CC(=O)N1CCN(c2nc(O[C@H](C)CN(C)C)nc3c2CCN(c2cc(O)cc4ccccc24)C3)CC1` [Example 19, (R)-1-(4-(2-((1-(dimethylamino)propan-2-yl)oxy)-7-(3-hydroxynaphthalen-1-yl)-5,6,7,8-tetrahydropyrido[3,4-d]pyrimidin-4-yl)piperazin-1-yl)prop-2-en-1-one], for which the IC50 is 0.0001 to 1 µM.

On to `C=CC(=O)N1CCN(c2nc(OCCCN3CCOCC3)nc3c2CCN(c2cc(O)cc4cc(C)ccc24)C3)CC1` [Example 43, 1-(4-(7-(3-hydroxy-6-methylnaphthalen-1-yl)-2-(3-morpholinopropoxy)-5,6,7,8-tetrahydropyrido[3,4-d]pyrimidin-4-yl)piperazin-1-yl)prop-2-en-1-one], for which the IC50 is over 1 µM.

For `C=CC(=O)N1CCN(c2nc(OC[C@@H]3CCCN3C)nc3c2CCN(c2cccc4cc(F)ccc24)C3)CC1CC#N` (stereo partly drawn) [Example 259, 2-[4-[7-(6-fluoro-1-naphthyl)-2-[[(2S)-1-methylpyrrolidin-2-yl]methoxy]-6,8-dihydro-5H-pyrido[3,4-d]pyrimidin-4-yl]-1-prop-2-enoyl-piperazin-2-yl]acetonitrile], the IC50 was 0.0001 to 1 µM.

For `C=CC(=O)N1CCN(c2nc(OCCN(C)C)nc3c2CC(C)N(c2cc(O)cc4ccccc24)C3)CC1` (stereo not drawn) [Example 48, 1-(4-(2-(2-(dimethylamino)ethoxy)-7-(3-hydroxynaphthalen-1-yl)-6-methyl-5,6,7,8-tetrahydropyrido[3,4-d]pyrimidin-4-yl)piperazin-1-yl)prop-2-en-1-one trifluoroacetate], the IC50 was over 1 µM.

Regarding `C=CC(=O)N1CCN(c2nc(O[C@H](C)CN3CCCCC3)nc3c2CCN(c2cc(O)cc4ccccc24)C3)CC1` [Example 75, (R)-1-(4-(7-(3-hydroxynaphthalen-1-yl)-2-((1-(piperidin-1-yl)propan-2-yl)oxy)-5,6,7,8-tetrahydropyrido[3,4-d]pyrimidin-4-yl)piperazin-1-yl)prop-2-en-1-one], the IC50 lay within 0.0001 to 1 µM.

In the case of `C=CC(=O)N1CCN(c2nc(OCCN3CCC[C@H](OC)C3)nc3c2CCN(c2cc(O)cc4ccccc24)C3)CC1` [Example 98, (S)-1-(4-(7-(3-hydroxynaphthalen-1-yl)-2-(2-(3-methoxypiperidin-1-yl)ethoxy)-5,6,7,8-tetrahydropyrido[3,4-d]pyrimidin-4-yl)piperazin-1-yl)prop-2-en-1-one], the IC50 is over 1 µM.

`C=CC(=O)N1CCN(c2nc(OCCN(CC)CC)nc3c2CCN(c2ccccc2C(F)(F)F)C3)CC1CC#N` (stereo not drawn) [Example 284, 2-(1-acryloyl-4-(2-(2-(diethylamino)ethoxy)-7-(2-(trifluoromethyl)phenyl)-5,6,7,8-tetrahydropyrido[3,4-d]pyrimidin-4-yl)piperazin-2-yl)acetonitrile]: the IC50 fell in the range of 0.0001 to 1 µM.

Take `C=CC(=O)N1CCN(c2nc(OCCN3CCC(F)(F)CC3)nc3c2CCN(c2cc(O)cc4ccccc24)C3)CC1` [Example 109]: the IC50 was over 1 µM.

As to `C=CC(=O)N1CCN(c2nc(OCCCN3CCOCC3)nc3c2CCN(c2cc(O)ccc2SC(F)(F)F)C3)CC1` [Example 214, 1-(4-(7-(5-hydroxy-2-((trifluoromethyl)thio)phenyl)-2-(3-morpholinopropoxy)-5,6,7,8-tetrahydropyrido[3,4-d]pyrimidin-4-yl)piperazin-1-yl)prop-2-en-1-one], the IC50 is over 1 µM.

Regarding `C=C(F)C(=O)N1CCN(c2nc(OC[C@@H]3[C@H](O)CC(=O)N3C)nc3c2CCN(c2cccc4cccc(Cl)c24)C3)C[C@@H]1CC#N` [Example 573, 2-[(2S)-4-[7-(8-Chloro-1-naphthyl)-2-[[(2R,3R)-3-hydroxy-1-methyl-5-oxo-pyrrolidin-2-yl]methoxy]-6,8-dihydro-5H-pyrido[3,4-d]pyrimidin-4-yl]-1-(2-fluoroprop-2-enoyl)piperazin-2-yl]acetonitrile], the IC50 is over 1 µM.

Consider `Cc1cccc2cccc(N3CCc4c(nc(OC[C@@H]5CC(F)(F)CN5C)nc4N4CCN(C(=O)/C=C/CN5CC(F)C5)[C@@H](CC#N)C4)C3)c12` [Example 520, 2-[(2S)-4-[2-[[(2S)-4,4-difluoro-1-methyl-pyrrolidin-2-yl]methoxy]-7-(8-methyl-1-naphthyl)-6,8-dihydro-5H-pyrido[3,4-d]pyrimidin-4-yl]-1-[(E)-4-(3-fluoroazetidin-1-yl)but-2-enoyl]piperazin-2-yl]acetonitrile], for which the IC50 lay within 0.0001 to 1 µM.

As for `C=CC(=O)N1CCN(c2nc(OC(C)CCN(C)C)nc3c2CCN(c2cc(O)cc4ccccc24)C3)CC1` (stereo not drawn) [Example 21, 1-(4-(2-((4-(dimethylamino)butan-2-yl)oxy)-7-(3-hydroxynaphthalen-1-yl)-5,6,7,8-tetrahydropyrido[3,4-d]pyrimidin-4-yl)piperazin-1-yl)prop-2-en-1-one], the IC50 lay in the range of 0.0001 to 1 µM.

For the molecule `C=CC(=O)N1CCN(c2nc(OC[C@@H]3C[C@@H](OC)CN3C)nc3c2CCN(c2cccc4ccccc24)C3)C[C@@H]1CC#N` [Example 327, 2-((S)-1-acryloyl-4-(2-(((2S,4R)-4-methoxy-1-methylpyrrolidin-2-yl)methoxy)-7-(naphthalen-1-yl)-5,6,7,8-tetrahydropyrido[3,4-d]pyrimidin-4-yl)piperazin-2-yl)acetonitrile], the IC50 fell in the range of 0.0001 to 1 µM.

With `C=CC(=O)N1CCN(c2nc(OC[C@@H]3CCCN3C)nc3c2CCN(c2cccc4ccncc24)C3)C[C@@H]1CC#N` [Example 430], the IC50 is 0.0001 to 1 µM.

With `C=CC(=O)N1CCN(c2nc(OC[C@H]3C[C@@H](O)CN3C)nc3c2CCN(c2cccc(F)c2C(F)(F)F)C3)CC1CC#N` (stereo partly drawn) [Example 416, 2-(1-acryloyl-4-(7-(3-fluoro-2-(trifluoromethyl)phenyl)-2-(((2R,4R)-4-hydroxy-1-methylpyrrolidin-2-yl)methoxy)-5,6,7,8-tetrahydropyrido[3,4-d]pyrimidin-4-yl)piperazin-2-yl)acetonitrile], the IC50 lay within 0.0001 to 1 µM.

For the molecule `C=CC(=O)N1CCN(c2nc(OCCN3CCCCC3)nc3c2CCN(c2c(C)ccc4[nH]ncc24)C3)CC1` [Example 164], the IC50 is over 1 µM.

On to `C=CC(=O)N1CCN(c2nc(OC[C@@H]3CCCN3C)nc3c2CCN(c2cccc4ccccc24)C3)C(CC#N)C1` (stereo partly drawn) [Example 439, 2-(4-acryloyl-1-(2-(((S)-1-methylpyrrolidin-2-yl)methoxy)-7-(naphthalen-1-yl)-5,6,7,8-tetrahydropyrido[3,4-d]pyrimidin-4-yl)piperazin-2-yl)acetonitrile], for which the IC50 was over 1 µM.

For `C=CC(=O)N1CCN(c2nc(OCCN3CCC(OC)C3)nc3c2CCN(c2cc(O)cc4ccccc24)C3)CC1` (stereo not drawn) [Example 136, 1-[4-[7-(3-hydroxy-1-naphthyl)-2-[2-(3-methoxypyrrolidin-1-yl)ethoxy]-6,8-dihydro-5H-pyrido[3,4-d]pyrimidin-4-yl]piperazin-1-yl]prop-2-en-1-one], the IC50 is over 1 µM.

As to `CN(C)C/C=C/C(=O)N1CCN(c2nc(OC[C@@H]3CCCN3C)nc3c2CCN(c2cccc(Cl)c2C(F)(F)F)C3)C[C@@H]1CC#N` [Example 427], the IC50 is 0.0001 to 1 µM.

As to `C=CC(=O)N1CCN(c2nc(OCCCN3C[C@@H]4C[C@H]3CO4)nc3c2CCN(c2cccc4cccc(Cl)c24)C3)C[C@@H]1CC#N` [Example 365, 2-[(2S)-4-[7-(8-chloro-1-naphthyl)-2-[3-[(1S,4S)-2-oxa-5-azabicyclo[2.2.1]heptan-5-yl]propoxy]-6,8-dihydro-5H-pyrido[3,4-d]pyrimidin-4-yl]-1-prop-2-enoyl-piperazin-2-yl]acetonitrile], the IC50 was 0.0001 to 1 µM.

Usually IC50 stands for the midpoint of a concentration-inhibition curve.
